PubChem BioAssay AID624258 (Broad Institute, 2012)
Activity calls are given as the source filed them. How the calls were made is not given here.

Assay: SKN7 mediated toxicity in Saccharomyces cerevisiae, growth rescue counterscreen, dose confirmation (AID 624258);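 further: growth read after three days of incubation at 30 °C; 0% = median of neutral control wells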
Details: S. cerevisiae SKN7-toxicity growth rescue, plate reader

Compound	growth rescue activity (at 19.5 µM (top of the series))	further results
CCc1ccc(C(C)NC(=S)NC2CCCCC2)cc1 (configuration not stated)		growth rescue activity (at 2.1 µM (top of the series)): -19.4% (inactive)
Cc1ccc(C(=O)C(SC(C)(C)C)n2cncn2)cc1 (configuration not stated)		growth rescue activity (at 6.8 µM (top of the series)): 27.6% (inactive)
O=c1c(CO)cc(CO)cc(CO)c1O	-26.9% (inactive)	
COc1cc2c(cc1OC)C(C)N(C(=O)c1cccc([N+](=O)[O-])c1)CC2 (configuration not stated)		growth rescue activity (at 6.8 µM (top of the series)): -17.8% (inactive)
S=C(NCc1ccco1)Nc1ccc(Oc2ccc(Cl)cc2)cc1	26.1% (inactive)	
Cc1cccc(C)c1N1C(=O)C2ON(c3ccccc3)C(c3ccncc3)C2C1=O (configuration not stated)	-56.4% (inactive)	
O=Nc1c(O)c2ccccc2c2ccccc12	-91.5% (inactive)	
CC(C)(C)c1ccc(S(=O)(=O)/N=C2\C=C(NS(=O)(=O)c3ccccc3)C(=O)c3ccccc32)cc1	-5.91% (inactive)	
CCCCCCCc1ccc(-c2ccc(O)cc2)nc1	-79.8% (inactive)	
COc1ccccc1-c1sc2cc3c(cc2c1C#Cc1cncn1C)OCO3	-72% (inactive)	
CCOC(=O)c1c(C)[nH]c2c1-c1ccccc1C(=O)C2=O	-17.4% (inactive)	
Cn1c(N=Nc2ccccc2)nc2ccccc21	-85.7% (inactive)	
Oc1c(CN2CCCC2)cc(COCc2ccccc2)c2cccnc12	23.1% (inactive)	
Clc1nc(-c2ccccn2)nc2scc(-c3ccccc3)c12	-76.2% (inactive)	
COC(=O)C1=NN(C(=O)c2cccc(Br)c2)C(O)(c2ccc(Cl)cc2)C1 (configuration not stated)	-17.5% (inactive)	
CC(=O)NC(c1cccc([N+](=O)[O-])c1)c1ccc2cccnc2c1O (configuration not stated)	-39.9% (inactive)	
Cc1ccc(Nc2cc(C)nn2-c2nc(C)cc(C)n2)cc1	-73.3% (inactive)	
O=C(NC(=S)N(CCc1ccccc1)CCc1ccccc1)c1ccco1	-9.38% (inactive)	
COC(=O)c1cc(C#N)c(Oc2ccc(F)cc2)nc1C	-11.6% (inactive)	
CCCCC(=O)NC(c1ccco1)c1cc(Cl)c2cccnc2c1O (configuration not stated)	-45% (inactive)	
COc1ccc2[nH]c(=O)c(CN(Cc3cccnc3)C(=O)Nc3ccccc3)cc2c1	-61.1% (inactive)	
CSc1nc(-c2ccccc2F)c(C#N)c(=O)n1C	47.9% (inactive)	
CCCSC(=S)c1c(C)[nH]n(-c2ccccc2)c1=O	-53% (inactive)	

Compound	growth rescue activity (at 19.5 µM (top of the series))	further results
CN(C)c1ccc(C=c2c3cc(O)ccc3n3c2cc(-c2ccccc2)[n+]3C)cc1	-34.8% (inactive)	
c1ccc(CSc2ccc(-c3ccccn3)nn2)nc1	-28% (inactive)	
Cc1ccc(O)c(-c2cc(-c3ccccc3C)[nH]n2)c1	-92.1% (inactive)	
COc1ccc(O)c(C(=O)CC(=O)c2ccccc2C)c1	-60.2% (inactive)	
O=C(Oc1c(-c2ccccc2)c(=O)n2c3c(cccc13)CC2)c1cccc([N+](=O)[O-])c1	-37.6% (inactive)	
CC(C)CNC(=O)COC(=O)c1ccc([N+](=O)[O-])cc1Cl	3.79% (inactive)	
COC(=O)c1cccc2c1-c1ccccc1/C2=N/O	30.5% (inactive)	
COC(=O)C(=N/Nc1ccccc1C(=O)OC)/C(C)=N/O	-7.81% (inactive)	
O=C(C1CCN(C2CC(=O)N(c3cccc(Cl)c3)C2=O)CC1)N1CCCC1 (configuration not stated)	84.3% (inactive)	
S=C(NC1CCCC1)N1CCN(c2cccc(Cl)c2)CC1	13.6% (inactive)	
O=C(CN1CCN(c2ncc(C(F)(F)F)cc2Cl)CC1)NCCNc1ncc(C(F)(F)F)cc1Cl	-35.8% (inactive)	
CC(C)(CN1CCc2ccccc2C1)NS(=O)(=O)c1ccc(Cl)cc1	-9.34% (inactive)	
CC12CCC(O)CC1=CCC1C2CCC2(C)C3=NN=CC3CC12 (configuration not stated)	-53.7% (inactive)	
Oc1ccccc1-c1cc(-c2ccc3c(c2)OCCO3)n[nH]1	2.6% (inactive)	
CC(C)C(=O)NC(c1cccc([N+](=O)[O-])c1)c1ccc2cccnc2c1O (configuration not stated)	-62.7% (inactive)	
CSC1SCC2C(=O)N(C)C(C(C)C)C(=O)OCC(NC(=O)c3cnc4ccccc4n3)C(=O)NC(C)C(=O)N(C)C1C(=O)N(C)C(C(C)C)C(=O)OCC(NC(=O)c1cnc3ccccc3n1)C(=O)NC(C)C(=O)N2C (configuration not stated)	8.43% (inactive)	
CCCC(C)Sc1nc2c([nH]1)c(=S)n(C)c(=O)n2C (configuration not stated)	-31.9% (inactive)	
Cc1ccc(S(=O)(=O)/N=C2/C=C(C3C(=O)CC(C)(C)CC3=O)C(=O)c3ccccc32)cc1	18.5% (inactive)	
FC(F)(F)c1cccc(N2CCN(C(=S)NC3CCCCC3)CC2)c1	64.1% (inactive)	
CCCCNc1c(-c2cccc(-c3ccc(OC)cc3)c2)nc2ccc(C)cn12	-90.6% (inactive)	
O=c1c(/C=N/O)coc2ccc(Cl)cc12	-4.03% (inactive)	
CCOC(=O)c1nnn(-c2ccc([N+](=O)[O-])cc2[N+](=O)[O-])c1C	17.3% (inactive)	
Oc1c(Br)cc(-c2ccccc2)cc1Br	-84.6% (inactive)	

Compound	growth rescue activity (at 19.5 µM (top of the series))	further results
Nc1nc2sc3c(c2c(=O)s1)CCCC3	-93.9% (inactive)	
CCCCOC(=O)/C=C/c1ccc(OC(=O)OC)c(OC(=O)OC)c1	-13.9% (inactive)	
COc1cc(NS(=O)(=O)c2ccc(C)cc2)c2ncccc2c1	-51.9% (inactive)	
N#Cc1cc2c(nc1SCc1ccccc1)CCCC2=O	-24.7% (inactive)	
S=C(Nc1ccc(Oc2ccccc2)cc1)NC1CCCCCC1	-9.53% (inactive)	
CCc1ccc(S(=O)(=O)N(C(=O)c2ccncc2)c2ccc(OC(=O)c3ccncc3)cc2)cc1	-42.7% (inactive)	
O=C(CSc1ccc(-c2ccccn2)nn1)NCc1ccc(Cl)cc1	-56.5% (inactive)	
O=P(Nc1cccnc1)(Oc1ccccc1Cl)Oc1ccccc1Cl	-59% (inactive)	
Cc1nc2ccc(C(C(F)(F)F)(C(F)(F)F)C(F)(F)F)cc2[nH]1	-85.7% (inactive)	
O=C1CC(c2cccc([N+](=O)[O-])c2)c2ccc3ccccc3c2N1 (configuration not stated)	47.4% (inactive)	
COc1cccc(Nc2nc(-c3cccs3)nc3ccccc23)c1	-45.7% (inactive)	
COc1ccc(-c2oc3ccccc3c2C#Cc2cncn2C)cc1	-49.1% (inactive)	
Cc1ccc(S(=O)(=O)N(C(=O)c2ccncc2)c2ccc(OC(=O)c3ccncc3)cc2)cc1	-57.3% (inactive)	
C[C@@]12CCC3[C@@](CCC4[C@@]3(C)CCC[C@@]4(C)C(=O)NCc3ccccc3)(CC1=O)C2 (some centres not stated)	-51.4% (inactive)	
C=CCOCCN(C)C1=NS(=O)(=O)c2cc([N+](=O)[O-])ccc21	-14.3% (inactive)	
Cc1ccccc1Oc1nc(-c2ccccn2)nc2ccccc12	-58.6% (inactive)	
Cn1nnnc1N=N/C(=N/Nc1ccccc1)c1ccccc1	-47% (inactive)	
Cc1cccc(Oc2cnn(C(C)(C)C)c(=O)c2Cl)c1	1.29% (inactive)	
CCC(C)n1ncn(-c2ccc(N3CCN(c4ccc(OCC5COC(Cn6cncn6)(c6ccc(Cl)cc6Cl)O5)cc4)CC3)cc2)c1=O (configuration not stated)	-70.7% (inactive)	
O=C1N(c2ccc(Cl)cc2)C(c2cccnc2)N2CCCN12 (configuration not stated)	-65.4% (inactive)	
CC1CC(=Cc2ccc([N+](=O)[O-])cc2)C(=O)O1 (configuration not stated)	2.43% (inactive)	
Cc1ccc(NC(=O)C2COc3ccccc3O2)cc1S(=O)(=O)N1CCCCC1 (configuration not stated)	35.9% (inactive)	
O/N=C/c1ccccc1OCc1ccc(Cl)cc1	10.8% (inactive)	

Compound	growth rescue activity (at 19.5 µM (top of the series))	further results
CCn1c2ccc(C)cc2c2nc3cc(C(=O)O)ccc3nc21	18.7% (inactive)	
CN(C)c1ccc(C=c2c3ccccc3n3c2cc(-c2ccc(Cl)cc2)[n+]3C)cc1	-52.4% (inactive)	
Cc1cc2nc(-c3ccc4c(c3)CCC4)ccn2n1	-10.6% (inactive)	
Cc1cccc(N=Cc2[nH]c3ccc(Br)c(Cl)c3c2O)c1	-14.7% (inactive)	
Cc1ccc(NC(=S)Nc2cccc3cnccc23)cc1C		growth rescue activity (at 6.8 µM (top of the series)): -25.1% (inactive)
O=[N+]([O-])c1ccc2c(OCc3nnc(-c4ccccc4Br)o3)ncnc2c1	7.4% (inactive)	
O=S(=O)(Nc1ccc(-n2cccc2)cc1)c1ccc(Cl)c(Cl)c1	-92.1% (inactive)	
O=C(O)c1c(NC(=O)N2CCCC2)sc2c1CCCC2	-88% (inactive)	
N#Cc1c(-c2ccc(Cl)cc2)nc2n(c1=O)CCCS2	35.4% (inactive)	
CCCCn1c(=O)c(C(=O)NCc2ccncc2)c(O)c2ccccc21	33% (inactive)	
O=S(=O)(c1ccc(Cl)cc1)N1CCC2(CC1)OCCN2S(=O)(=O)c1cccs1	-46.5% (inactive)	
O=C(Nc1ccc(C2=NCCN2)cc1)c1ccc(C(=O)Nc2ccc(C3=NCCN3)cc2)c(Cl)c1	-69% (inactive)	
O=C(NOC(=O)c1ccccc1)c1ccccc1	-77.5% (inactive)	
CCCCCCSc1ccc(-c2nc3ccccn3c2NCCCC)cc1	-84.3% (inactive)	
O=C(/C(=N/N=C/c1ccc(O)c(O)c1O)c1ccccc1)c1ccccc1	-75.4% (inactive)	
CCCn1c(=O)c(C(=O)NCc2ccc(OC)c(OC)c2)c(O)c2ccccc21	-19.9% (inactive)	
CCOC(=O)N1C(=O)C2(CCCCC2)N(c2ccccc2Cl)C1=S	-49.5% (inactive)	
CCC(CC)C(=O)N1CCN(c2cccc(C)c2C)CC1	-12.1% (inactive)	
O=C1c2cccc(Cl)c2C(=O)c2c1cccc2N1CCCC1	11.5% (inactive)	
O=C(c1ccccc1)c1coc2c1C(=O)c1ccccc1C2=O	18.2% (inactive)	
Cc1cc(NS(=O)(=O)c2ccc(C3CCCCC3)cc2)no1	-38.7% (inactive)	
CN(C)c1nc(SCc2ccc(Cl)cc2)nc2c1CCCC2	-65.9% (inactive)	
Cc1cc(OCc2cccc(S(=O)(=O)N3CCOCC3)c2)ccc1Cl	66.7% (inactive)	
